Where a name gives a salt, the structure may show the parent alone. Read-outs that look alike come from different tables or passages of the source. Values belong to the compound of their own block, whether it stands above or below them.
Columns and labels:
[1] = molecular target: T1, rat cortical A1 receptors (Rattus norvegicus, UniProt P25099); test: displacement of [3H]-CHA from rat cortical A1 receptors; assay type: binding
T1 construct: rat cortical membranes were the receptor source; from tissue; host or cells: rat cerebral cortex (male Sprague Dawley) membranes
T1 sequence (P25099 1-326): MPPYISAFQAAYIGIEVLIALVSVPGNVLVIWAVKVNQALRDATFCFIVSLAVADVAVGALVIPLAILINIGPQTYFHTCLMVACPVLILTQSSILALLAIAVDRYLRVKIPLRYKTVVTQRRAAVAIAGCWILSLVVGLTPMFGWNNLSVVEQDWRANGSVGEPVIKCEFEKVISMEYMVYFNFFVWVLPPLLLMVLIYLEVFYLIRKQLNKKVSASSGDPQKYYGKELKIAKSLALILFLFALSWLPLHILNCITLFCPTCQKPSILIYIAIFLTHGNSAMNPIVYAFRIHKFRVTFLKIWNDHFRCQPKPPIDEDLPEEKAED
Procedure: Varying concentrations of test compounds were incubated with the appropriate radioligand and membrane source for 1 hr at room temperature.
Assays were terminated by filtration over Whatman GF/B filters that had been pre-soaked with 0.1% polyethyleneimine using a 24 port Brandell cell havester. The filters were washed three times with 3 ml of ice cold buffer and transfered to plastic scintillation vials to which 4 ml of Beckman Ready protein scintillation cocktail was added. The tubes were shaken and counted in a Beckman 3801 scintillation counter that converted cpm to dpm.
Data were analyzed by utilizing the Ligand, commercial computer program (Munson and Rodbard, 1980).
Male Sprague Dawley rats were killed by decapitation and the brains removed. The cerebral cortices were homogenized in 50 mm Tris; 2mm MgCl2 (pH 7.4), and centrifuged at 40,000×g for 10 minutes. […] The homogenate was centrifuged, washed once, resuspended to a protein concentration of 5-10 mg/ml and frozen at -70° C. until use.

[2] = molecular target: T2, A1 receptors (Rattus norvegicus, UniProt P25099); test: inhibition of binding of [3H]-phenylisopropyladenosine in rat brain membranes (D); set-up: Rat Brain Membranes; from tissue; host or cells: rat brain (membranes)
T2 sequence (P25099 1-326): T1 sequence (P25099 1-326)
Procedure: (§1) For activity at A1 receptors, compounds were tested as inhibitors of the binding of N^6 -[…]-[3H]-Phenylisopropyladenosine in rat brain membranes and for their ability to prevent R-PIA-induced inhibition of adenylate cyclase in rat fat cell membranes.
(D) Rat Brain Membranes

[3] = molecular target: T2, A1 receptors; test: prevention of R-PIA-induced inhibition of adenylate cyclase in rat fat cell membranes (C); assay type: biochemical; set-up: from tissue
Procedure: as §1
(C) Rat Fat Cell Membranes

[4] = molecular target: T3, A2 receptors (Rattus norvegicus, UniProt P30543); test: antagonism of NECA-stimulated adenylate cyclase in rat PC12 membranes (B); assay type: biochemical
T3 construct: Rat PC12 Membranes; endogenous in cells; host or cells: PC12

[5] = molecular target: T4, A2 receptors (Homo sapiens, UniProt P29274); test: antagonism of NECA-stimulated adenylate cyclase in human platelet membranes (A); assay type: biochemical
T4 construct: Human Platelet Membranes; from tissue; host or cells: human platelets (membranes)

[6] = [3H]-CHA, rat cortical A1 receptors, read-out: Rat Cortical Binding Constant Ki
[7] = (C) Rat Fat Cell Membranes, A1 Effects, read-out: KB vs PIA INHIBITION (Adenylate Cyclase)
[8] = (A) Human Platelet Membranes, A2 Effects
[9] = (B) Rat PC12 Membranes, A2 Effects
[10] = (D) Rat Brain Membranes, A1 Effects, read-out: Ki vs [^3 H] PI (Binding)

T4 sequence (P29274 whole entry): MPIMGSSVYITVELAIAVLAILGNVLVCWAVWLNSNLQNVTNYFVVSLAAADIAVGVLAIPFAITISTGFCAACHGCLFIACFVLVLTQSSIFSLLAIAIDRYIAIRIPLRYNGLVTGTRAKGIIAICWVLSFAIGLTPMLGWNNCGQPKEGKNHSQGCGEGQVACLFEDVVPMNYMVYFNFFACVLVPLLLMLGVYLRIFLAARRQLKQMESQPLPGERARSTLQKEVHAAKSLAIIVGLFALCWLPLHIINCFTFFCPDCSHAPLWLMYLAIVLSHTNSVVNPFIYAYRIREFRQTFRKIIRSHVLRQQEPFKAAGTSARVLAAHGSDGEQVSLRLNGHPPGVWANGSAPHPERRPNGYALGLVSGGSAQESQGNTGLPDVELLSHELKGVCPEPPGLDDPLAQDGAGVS
T3 sequence (P30543 whole entry): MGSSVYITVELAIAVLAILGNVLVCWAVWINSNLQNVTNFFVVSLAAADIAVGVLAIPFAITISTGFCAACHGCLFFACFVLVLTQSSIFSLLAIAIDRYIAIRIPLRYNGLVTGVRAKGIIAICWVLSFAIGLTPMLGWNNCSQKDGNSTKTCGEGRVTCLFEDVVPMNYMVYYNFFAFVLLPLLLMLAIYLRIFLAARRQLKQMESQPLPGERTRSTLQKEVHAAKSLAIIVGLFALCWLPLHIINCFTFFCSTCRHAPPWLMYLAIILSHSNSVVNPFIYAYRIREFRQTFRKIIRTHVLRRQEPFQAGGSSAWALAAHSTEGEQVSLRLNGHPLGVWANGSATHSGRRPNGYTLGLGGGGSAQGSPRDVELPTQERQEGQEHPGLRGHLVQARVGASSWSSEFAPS

- Ki [1, 6]: 0.105 µM
Compound: Cn1cnc2c(N[C@H]3C[C@H]4CC[C@@H]3C4)nc(Cl)nc21 (relative stereo) [compound 0913, N^6-(endo-2-norbornyl)-2-chloro-9-MA]

- Ki [1, 6]: 0.24 µM
Compound: Cn1c(C2CCCC2)nc2c(N[C@H]3C[C@H]4CC[C@@H]3C4)ncnc21 (relative stereo) [compound 0964, N^6-(endo-2-norbornyl)-8-cyclopentyl-9-MA]

- Ki [1, 6]: 0.43 µM
Compound: Cn1cnc2c(N[C@@H]3C[C@H]4CC[C@@H]3C4)ncnc21 (relative stereo) [compound 0978, N^6-(exo-2-norbornyl)-9-MA]

- Ki [1, 6]: ~10 µM
Compound: Cn1c(=O)[nH]c2c(N[C@H]3C[C@H]4CC[C@@H]3C4)ncnc21 (relative stereo) [compound 1001, N^6-(endo-2-norbornyl)-8-oxo-9-MA]

- Ki [1, 6]: 0.013 µM
Compound: Cn1c(Br)nc2c(N[C@H]3C[C@H]4CC[C@@H]3C4)ncnc21 (relative stereo) [compound 1003, N^6-(endo-2-norbornyl)-8-bromo-9-MA]

- Ki [1, 6]: 0.87 µM
Compound: Cn1c(N)nc2c(N[C@H]3C[C@H]4CC[C@@H]3C4)ncnc21 (relative stereo) [compound 1005, N^6-(endo-2-norbornyl)-8-amino-9-MA]

- Ki [1, 6]: > 10 µM
Compound: Cn1c(C(=O)O)nc2c(N[C@H]3C[C@H]4CC[C@@H]3C4)ncnc21 (relative stereo) [compound 1006, N^6-(endo-2-norbornyl)-8-carboxy-9-MA Sodium Salt]

- Ki [1, 6]: 0.49 µM
Compound: OCCOCn1cnc2c(N[C@H]3C[C@H]4CC[C@@H]3C4)ncnc21 (relative stereo) [compound 1059, N^6-(endo-2-norbornyl)-9-[(2-hydroxyethoxy)methyl]adenine]

- Ki [1, 6]: 0.37 µM
Compound: Cn1c(S)nc2c(N[C@H]3C[C@H]4CC[C@@H]3C4)ncnc21 (relative stereo) [compound 1060, N^6-(endo-2-norbornyl)-8-thio-9-MA]

- Ki [1, 6]: 0.015 µM
Compound: Cn1c(Cl)nc2c(N[C@H]3C[C@H]4CC[C@@H]3C4)ncnc21 (relative stereo) [compound 1061, N^6-(endo-2-norbornyl)-8-chloro-9-MA]

- Ki [1, 6]: > 100 µM
Compound: Cn1c(S(=O)(=O)O)nc2c(N[C@H]3C[C@H]4CC[C@@H]3C4)ncnc21 (relative stereo) [compound 1062, N^6-(endo-2-norbornyl)-8-sulfonate-9-MA sodium salt]

- Ki [1, 6]: 1.12 µM
Compound: Cn1cnc2c(N[C@H]3C[C@H]4CC[C@@H]3C4)nc(O)nc21 (relative stereo) [compound 1063, N^6-(Endo-2-norbornyl)-2-oxo-9-MA]

- Ki [1, 6]: 1.9 µM
Compound: Cn1c(NC2CCCC2)nc2c(N[C@H]3C[C@H]4CC[C@@H]3C4)ncnc21 (relative stereo) [compound 1064, N^6-(endo-2-norbornyl)-8-cyclopentylamine-9-MA]

Compound: Cn1cnc2c(N)ncnc21 [9-Methyladenine (9-MA), 9-Methyladenine, reference compound]
- Ki [2]: 106 µM
- Kb [3]: 112 µM
- Kb [4]: 24 µM

- Kb [3, 7]: 0.65 µM
- Kb [5, 8]: 7.4 µM
- Kb [4, 9]: 21 µM
Compound: Cn1cnc2c(NC3CCCCC3)ncnc21 [N^6 -Cyclohexyl-9-MA]

Compound: CNc1ncnc2c1ncn2C [N^6 -Methyl-9-MA]
- Ki [2]: > 100 µM
- Kb [3]: 220 µM
- Kb [5]: 150 µM
- Kb [4]: 130 µM

- Ki [2, 10]: 25 µM
- Kb [3, 7]: 10 µM
- Kb [5, 8]: 21 µM
- Kb [4, 9]: 107 µM
Compound: Cn1cnc2c(Nc3ccccc3)ncnc21 [N^6 Phenyl-9-MA, N^6 -Phenyl-9-MA]

- Ki [2]: 2.5 µM
- Kb [3]: 7.2 µM
- Kb [5, 8]: 13 µM
- Kb [4, 9]: 25 µM
Compound: C[C@H](Cc1ccccc1)Nc1ncnc2c1ncn2C [N^6 R-1-Phenyl-2-propyl-9-MA, N^6 -R-1-Phenyl-2-propyl-9-MA]

- Ki [2, 10]: 41 µM
- Kb [3, 7]: 96 µM
- Kb [5, 8]: 92 µM
- Kb [4, 9]: 117 µM
Compound: Cn1cnc2c(NCCc3cccnc3)ncnc21 [N^6-2-(3-Pyridylethyl)-9-MA]

- Ki [2, 10]: 20 µM
- Kb [3, 7]: 24 µM
- Kb [5, 8]: 14 µM
- Kb [4, 9]: 25 µM
Compound: Cn1cnc2c(NCCc3ccsc3)ncnc21 [N^6-2-(3-Thienylethyl)-9-MA]

- Ki [2, 10]: 17 µM
- Kb [3, 7]: 49 µM
- Kb [5, 8]: 57 µM
- Kb [4, 9]: 100 µM
Compound: Cn1cnc2c(NCc3ccccc3)ncnc21 [N^6-2-Benzyl-9-MA, N^6 -Benzyl-9-MA]

- Ki [2, 10]: 8.5 µM
- Kb [3, 7]: 17 µM
- Kb [5, 8]: 11 µM
- Kb [4, 9]: 29 µM
Compound: Cn1cnc2c(Nc3ccccc3F)ncnc21 [N^6-2-Fluorophenyl-9-MA, N^6-2-Fluorophenyl-9-MA]

- Ki [2, 10]: 1.2 µM
- Kb [3, 7]: 0.89 µM
- Kb [5, 8]: 5.5 µM
- Kb [4, 9]: 23 µM
Compound: Cn1cnc2c(NC3CCC3)ncnc21 [N^6-cyclobutyl-0-MA, N^6 -Cyclobutyl-9-Methyl Adenine]

- Ki [1, 6]: 0.141 µM
Compound: Cn1c(C2CCCC2)nc2c(NC3CCCC3)ncnc21 [compound 0965, N^6-cyclopentyl-8-cyclopentyl-9-MA]

- Ki [1, 6]: > 10 µM
Compound: Cn1cnc2c(NCC(c3ccccc3)c3ccccc3)ncnc21 [compound 0966, N^6-2,2-diphenylethyl-9-MA]

- Ki [1, 6]: > 10 µM
Compound: Cn1cnc2c(NCCc3ccccc3Cl)ncnc21 [compound 0967, N^6-2(2-chlorophenylethyl)9-MA]

- Ki [1, 6]: > 10 µM
Compound: Cn1cnc2c(NCCN)ncnc21 [compound 0982, N^6-2-Aminoethyl-9-MA]

- Ki [1, 6]: > 10 µM
Compound: CN(C)CCNc1ncnc2c1ncn2C [compound 0983, N^6-(2,2-N-dimethylethyl)-9-MA]

- Ki [1, 6]: > 10 µM
Compound: C[C@@H](Nc1ncnc2c1ncn2C)c1ccccc1 [compound 0984, N^6 -R-1-phenyl-1-ethyl-9-MA]

- Ki [1, 6]: > 100 µM
Compound: C[C@H](Nc1ncnc2c1ncn2C)c1ccccc1 [compound 0985, N^6 -S-1-phenyl-1-ethyl-9-MA]

Compound: C[C@@H](Cc1ccccc1)Nc1ncnc2c1ncn2C [compound 0986, N^6 -S-1-phenyl-2-propyl-9-MA]
- Ki [2]: 10 µM
- Kb [5]: 23 µM
- Ki [1]: > 10 µM
- Kb [4, 9]: 74 µM

- Ki [1, 6]: > 100 µM
Compound: Cn1cnc2c(Nc3cccs3)ncnc21 [compound 0987, N6 2-thienyl-9-MA]

- Ki [1, 6]: > 10 µM
Compound: Cc1cc(Cl)ccc1Nc1ncnc2c1ncn2C [compound 0988, N6(4-chloro-2-methylphenyl)-9-MA]

- Ki [1, 6]: > 10 µM
Compound: Cn1cnc2c(NCCc3c[nH]c4ccccc34)ncnc21 [compound 0989, N^6-2-(3-ethylindole)-9-MA]

- Ki [2, 10]: > 100 µM
- Kb [3, 7]: > 300 µM
- Kb [5, 8]: 170 µM
- Ki [1, 6]: > 10 µM
- Kb [4, 9]: 120 µM
Compound: Cn1cnc2c(NCCc3ccccc3)ncnc21 [compound 0990, N^6-2-(phenethyl)9-MA]

- Ki [2, 10]: > 100 µM
- Kb [3, 7]: 122 µM
- Kb [5, 8]: 23 µM
- Ki [1, 6]: > 10 µM
- Kb [4, 9]: 40 µM
Compound: COc1cc(CCNc2ncnc3c2ncn3C)cc(OC)c1OC [compound 1002, N^6-2-(3,4,5-Trimethoxyphenyl) ethyl-9-MA]

- Ki [1, 6]: > 100 µM
Compound: CCCC(Nc1ncnc2c1ncn2C)C(=O)O (centres unmarked) [compound 1004, N^6-1-carboxy-1-butyl-9-MA]

- Ki [2, 10]: 2.5 µM
- Kb [3, 7]: 9 µM
- Kb ([5]; read-out: KB vs NECA Stimulation (Adenylate Cyclase), (A) Human Platelet Membranes, A2 Effects): 45 µM
- Kb ([4]; read-out: KB vs NECA Stimulation (Adenylate Cyclase), (B) Rat PC12 Membranes, A2 Effects): 56 µM
Compound: N^6 -Methylcyclopentyl-9-MA [N^6 -Methylcylopentyl-9-MA]
